According to patent US12201641B2, “Compositions comprising Withania Somnifera extract for mammalian consumption” (SpecNova LLC, priority 2021, dated 2025):

Test: in vitro
Details: human, Caco-2, pH 7.4, Caco-2 Permeability (Papp) (A→B); for Papp A→B at 120 min, 1 μg/mL: compound alone, 1 μg/mL in HBSS buffer, pH 7.4, 120 min
Protocol: The Caco-2 permeability of two Withania somnifera extracts prepared by the claimed method of the present application (EXT001 and EXT002) and one Withania somnifera extract prepared using an alternative method (ALT001) were measured for comparison. Caco-2 cells (ATCC HTB-37) were grown on 24 well Transwell plates for 21 days. as per internal protocol number MET-TDDC-011. On the day of experiment the transepithelial electrical resistance (TEER) was measured across the monolayer and wells with TEER greater than 200 ohm*cm^2 were used for the permeability assessment. Incubation buffer consisted of Hanks balanced salt solution (HBSS) without CaCl2 and MgCl2, adjusted to pH 7.4, for both the donor, and the receiver. […] Lucifer yellow was used as zero permeability reference to check membrane integrity.
The compound solutions were prepared in HBSS buffer (pH 7.4) at a concentration of 1 μg/mL for permeability assessment. 5 mg each of Withania somnifera extracts EXT002 and EXT001 were added to 5 mL of HBSS buffer and vortexed for 2 hours followed by filtration through 0.22 μm syringe filter. These solutions were used for permeability determination. […] The methanolic extract was filtered through 0.22 μm filter. This extract was concentrated to 1 mL by passing nitrogen gas at 40° C. for 1 hr. Then 20 μL of this extract was spiked in 2 mL of HBSS buffer and filtered through 0.22 μm filter. This solution was used for the permeability study.
The permeability assay was performed in triplicate for each compound or product. Prior to the permeability assay, the transwells were washed with in pre-warmed HBSS buffer. The medium in the insert was aspirated and then the transwells were transferred to a 24-well plate with blank HBSS buffer (600 μL) in each well, and compound solution (102.5 μL, of which 2.5 μL was sampled immediately as the zero-minute donor) was added to each insert. Receiver samples (25 μL) were collected at 60, and 120 minutes, and replaced with an equal volume of fresh pre-warmed receiver buffer (at 60 minutes). The donor side was sampled (2.5 μL) at 0 and 120 minutes. The assay was conducted at 37° C. in a humidified CO2 incubator.
For analysis, any necessary dilutions of samples were performed with HBSS, pH 7.4. 25 μL of sample was mixed with 100 μL of acetonitrile with 25 ng/mL of mitragynine internal standard (IS), and then mixed and filtered through 0.4 μm filter plate to by centrifugation for 5 minutes at 2,000 rpm to a polypropylene 96-well plate for analysis. The samples were assayed by LC-MS/MS method.
The apparent permeability coefficient (Papp) and recovery were calculated as follows: […]
Where, VA is the volume of the acceptor compartment; A is the diffusional area of the membrane (0.33 cm^2); T is the length of study; [Drug]ini,donor is the donor compound amount at 0 minute; [Drug]acceptor is the acceptor compound amount at 120 minute. The compounds with permeability above 5×10^−6 cm/s will be considered high permeability compounds while those with permeability below 5×10^−6 cm/s will be considered low permeability compounds.

SMILES	Papp A→B at 120 min, 5 μg/mL [×10⁻⁶ cm/s]	Papp A→B at 120 min, 1 μg/mL [×10⁻⁶ cm/s]
NS(=O)(=O)c1cc2c(cc1Cl)N=CNS2(=O)=O [Chlorothiazide, reference compound]	4.2 ± 1.79	
CC1=C(CO)C(=O)O[C@@H]([C@@H](C)[C@H]2CC[C@H]3[C@@H]4C[C@H]5O[C@]56[C@@H](O)C=CC(=O)[C@]6(C)[C@H]4CC[C@]23C)C1 [Withaferin A, withaferin A]		4.55 ± 0.81
CC1=C(C)C(=O)O[C@@H]([C@](C)(O)[C@H]2CC[C@H]3[C@@H]4[C@@H]5O[C@@H]5[C@@]5(O)CC=CC(=O)[C@]5(C)[C@H]4CC[C@]23C)C1 [Withanolide A, withanolide A]		3.23 ± 0.5
CC1=C(C)C(=O)O[C@@H]([C@@H](C)[C@H]2CC[C@H]3[C@@H]4CC=C5C[C@@H](O[C@@H]6O[C@H](CO[C@@H]7O[C@H](CO)[C@@H](O)[C@H](O)[C@H]7O)[C@@H](O)[C@H](O)[C@H]6O)C[C@H](O)[C@]5(C)[C@H]4CC[C@]23C)C1 [Withanolside V, withanoside V]		4.03 ± 0.87
CC1=C(CO)C(=O)O[C@@H]([C@@H](C)[C@H]2CC[C@H]3[C@@H]4CC=C5C[C@@H](O[C@@H]6O[C@H](CO[C@@H]7O[C@H](CO)[C@@H](O)[C@H](O)[C@H]7O)[C@@H](O)[C@H](O)[C@H]6O)C[C@H](O)[C@]5(C)[C@H]4CC[C@]23C)C1 [Withanoside IV, withanoside IV]		5.42 ± 0.69
